# Tested on: white mouse models of P-407-induced dyslipidemia
# Experiment: Dyslipidemia regulation effects in P-407-induced endogenous dyslipidemia model in white mice
# Type: in vivo
# Details: oral 100 mg/kg, 7 days; for Total cholesterol: Reduction in comparison with the model batch: 100 mg/kg
# Procedure: The test on white mice was divided into 5 batches, each batch having 10 animals. The batches were subjected to injection and oral administration as follows: • Batch 1 (biological control): 0.9% saline was intraperitoneally injected at a volume of 0.1 mL/10 g mouse body weight and 0.2 mL/10 g distilled water was orally administered. • Batch 2 (model): 2% P-407 solution was intraperitoneally injected at 200 mg/kg (0.1 mL/10 g), and 0.2 mL/10 g distilled water was orally administered. • Batch 3 (positive control): 2% P-407 solution was intraperitoneally injected at 200 mg/kg (0.1 mL/10 g), and 100 mg/kg (0.2 mL/10 g) atorvastatin was orally administered. • Batch 4: 2% P-407 solution was intraperitoneally injected at 200 mg/kg (0.1 mL/10 g), the composition was orally administered at 0.24 g/kg/day (equivalent to the clinical intended dose), at 0.2 mL/10 g. • Batch 5: 2% P-407 solution was intraperitoneally injected at 200 mg/kg dose (0.1 mL/10 g), the composition was orally administered at dosage 0.72 g/kg/day (3 times as much as the clinical intended dose), at 0.2 mL/10 g.
# White mice were subjected to oral administration of distilled water and the sample drug in 7 continuous days before the intraperitoneal injection with P-407 solution. After P-407 injection, the mice were left to starve completely but were free to drink water. After 24 hours from the P-407 injection, all of the mice received carotid arterial blood sampling for TG, TC, and HDL-C quantitative testing. Non-HDL-C levels were calculated based on the following formula: Non-HDL-C=TC−HDL-C (mmol/L) Test Results Total Cholesterol Levels
# [1] = white mouse blood, 24 h after P-407 200 mg/kg i.p., n = 10
smiles,measurement,setting,value
"CC(C)c1c(C(=O)Nc2ccccc2)c(-c2ccccc2)c(-c2ccc(F)cc2)n1CC[C@@H](O)C[C@@H](O)CC(=O)O [Atorvastatin, atorvastatin]",Non-HDL-cholesterol level,"Non-HDL-C=TC−HDL-C, white mouse blood, 24 h after P-407, n = 10",6.08 ± 0.88 mmol/L
same,Non-HDL-cholesterol: Reduction in comparison with the model,P-407 model,12.1%
same,Total cholesterol: Reduction in comparison with the model batch,P-407 model,5.7%
same,HDL-C level change versus model batch (↑ increase),"P-407 model, given with ↑",(↑ 19.1%)
same,Total cholesterol: Reduction in comparison with the model batch,"P-407 model, listed as atorvastatin",5.7%
same,Triglyceride: Reduction in comparison with the model batch,"P-407 model, negative = increase",−46.3%
same,HDL-C level,[1],2.12 ± 0.41 mmol/L
same,Total cholesterol level,[1],8.20 ± 1.01 mmol/L
same,Triglyceride level,[1],9.77 ± 1.05 mmol/L
